From US10266537B2, “3-acetylenyl-pyrazole-pyrimidine derivative, and preparation method therefor and uses thereof” (Si Chuan University, priority 2015, dated 2019)
pIC50: −log10 of the molar value.

How the values were obtained:
[1] = tested on: THP-1; assay: Cell proliferation inhibition assay (MTT); assay type: cell-based; settings: Homo sapiens, 72 hours, read-out: Proliferation inhibitory activity IC50
Experimental: (§1) The cells were seeded in 96-well plates with 200 μL of cell suspension per well and incubated overnight in a cell culture medium with a cell concentration of 1 2×10^4 cells/mL. The next day, the supernatant was discarded (the suspension cell was centrifuged before it) and the cells were treated with gradient concentrations of the test compound, respectively. […] After 72 hours, add 20 μL of MTT reagent at a concentration of 5 mg/mL per well. After incubation for 2-4 h, the supernatant was discarded and 150 μL of DMSO was added to each well. […] Relative cell proliferation inhibition rate=([MUT]-[MUT])×100%/[MUT]. The experiment was repeated at least 3 times. Experimental data were expressed as mean, data statistics using t test, P<0.05 for the difference was statistically significant.

[2] = tested on: MCF-7; assay: Cell proliferation inhibition assay (MTT); assay type: cell-based; settings: Homo sapiens, MCF7, 72 hours, read-out: Proliferation inhibitory activity IC50
Experimental: as §1

[3] = tested on: MDA-MB-453; assay: cells; settings: Homo sapiens, MDA-MB-453, 72 h, read-out: Proliferation inhibitory activity IC50
[4] = target: Txk (Homo sapiens (Human), UniProt P42681); assay: Kinase inhibition assay (KinaseProfiler, 33P-ATP); assay type: biochemical; settings: Txk(h), read-out: The percentage of the remaining active protein
[5] = target: cKit (D816H) (Homo sapiens (Human), UniProt P10721, D816H); assay: Kinase inhibition assay (KinaseProfiler, 33P-ATP); assay type: biochemical; settings: cKit(D816H)(h), read-out: The percentage of the remaining active protein
[6] = target: EphB3 (Homo sapiens (Human), UniProt P54753); assay: Kinase inhibition assay (KinaseProfiler, 33P-ATP); assay type: biochemical; settings: EphB3(h), read-out: The percentage of the remaining active protein
[7] = target: ErbB4 (Homo sapiens (Human), UniProt Q15303); assay: Kinase inhibition assay (KinaseProfiler, 33P-ATP); assay type: biochemical; settings: ErbB4(h), read-out: The percentage of the remaining active protein
[8] = target: A-Raf(h) (Homo sapiens (Human), UniProt P10398); assay: Kinase inhibition assay (KinaseProfiler, 33P-ATP); assay type: biochemical; settings: read-out: The percentage of the remaining active protein
[9] = target: BrSK2(h) (Homo sapiens (Human), UniProt Q8IWQ3); assay: Kinase inhibition assay (KinaseProfiler, 33P-ATP); assay type: biochemical; settings: read-out: The percentage of the remaining active protein
[10] = target: BTK(R28H)(h) (Homo sapiens (Human), UniProt Q06187, R28H); assay: Kinase inhibition assay (KinaseProfiler, 33P-ATP); assay type: biochemical; settings: read-out: The percentage of the remaining active protein
[11] = target: CHK2(h) (Homo sapiens (Human), UniProt O96017); assay: Kinase inhibition assay (KinaseProfiler, 33P-ATP); assay type: biochemical; settings: read-out: The percentage of the remaining active protein
[12] = target: CK1γ2(h) (Homo sapiens (Human), UniProt P78368); assay: Kinase inhibition assay (KinaseProfiler, 33P-ATP); assay type: biochemical; settings: read-out: The percentage of the remaining active protein
[13] = target: CK1γ3(h) (Homo sapiens (Human), UniProt Q9Y6M4); assay: Kinase inhibition assay (KinaseProfiler, 33P-ATP); assay type: biochemical; settings: read-out: The percentage of the remaining active protein
[14] = target: DMPK(h) (Homo sapiens (Human), UniProt Q09013); assay: Kinase inhibition assay (KinaseProfiler, 33P-ATP); assay type: biochemical; settings: read-out: The percentage of the remaining active protein
[15] = target: FGFR1(V561M)(h) (Homo sapiens (Human), UniProt P11362, V561M); assay: Kinase inhibition assay (KinaseProfiler, 33P-ATP); assay type: biochemical; settings: read-out: The percentage of the remaining active protein
[16] = target: Hck(h) activated (Homo sapiens (Human), UniProt P08631); assay: Kinase inhibition assay (KinaseProfiler, 33P-ATP); assay type: biochemical; settings: read-out: The percentage of the remaining active protein
[17] = target: HIPK2(h) (Homo sapiens (Human), UniProt Q9H2X6); assay: Kinase inhibition assay (KinaseProfiler, 33P-ATP); assay type: biochemical; settings: read-out: The percentage of the remaining active protein
[18] = target: HIPK3(h) (Homo sapiens (Human), UniProt Q9H422); assay: Kinase inhibition assay (KinaseProfiler, 33P-ATP); assay type: biochemical; settings: read-out: The percentage of the remaining active protein
[19] = target: JNK3(h) (Homo sapiens (Human), UniProt P53779); assay: Kinase inhibition assay (KinaseProfiler, 33P-ATP); assay type: biochemical; settings: read-out: The percentage of the remaining active protein
[20] = target: LOK(h) (Homo sapiens (Human), UniProt O94804); assay: Kinase inhibition assay (KinaseProfiler, 33P-ATP); assay type: biochemical; settings: read-out: The percentage of the remaining active protein
[21] = target: MELK(h) (Homo sapiens (Human), UniProt Q14680); assay: Kinase inhibition assay (KinaseProfiler, 33P-ATP); assay type: biochemical; settings: read-out: The percentage of the remaining active protein
[22] = target: NEK11(h) (Homo sapiens (Human), UniProt Q8NG66); assay: Kinase inhibition assay (KinaseProfiler, 33P-ATP); assay type: biochemical; settings: read-out: The percentage of the remaining active protein
[23] = target: PhKγ2(h) (Homo sapiens (Human), UniProt P15735); assay: Kinase inhibition assay (KinaseProfiler, 33P-ATP); assay type: biochemical; settings: read-out: The percentage of the remaining active protein
[24] = target: PKCη(h) (Homo sapiens (Human), UniProt P24723); assay: Kinase inhibition assay (KinaseProfiler, 33P-ATP); assay type: biochemical; settings: read-out: The percentage of the remaining active protein
[25] = target: PKCι(h) (Homo sapiens (Human), UniProt P41743); assay: Kinase inhibition assay (KinaseProfiler, 33P-ATP); assay type: biochemical; settings: read-out: The percentage of the remaining active protein
[26] = target: PKG1β(h) (Homo sapiens (Human), UniProt Q13976); assay: Kinase inhibition assay (KinaseProfiler, 33P-ATP); assay type: biochemical; settings: read-out: The percentage of the remaining active protein
[27] = target: Rsk1(r) (Rattus norvegicus (Rat), UniProt Q63531); assay: Kinase inhibition assay (KinaseProfiler, 33P-ATP); assay type: biochemical; settings: read-out: The percentage of the remaining active protein
[28] = target: SGK(h) (Homo sapiens (Human), UniProt O00141); assay: Kinase inhibition assay (KinaseProfiler, 33P-ATP); assay type: biochemical; settings: read-out: The percentage of the remaining active protein
[29] = target: SGK3(h) (Homo sapiens (Human), UniProt Q96BR1); assay: Kinase inhibition assay (KinaseProfiler, 33P-ATP); assay type: biochemical; settings: read-out: The percentage of the remaining active protein
[30] = target: SNRK(h) (Homo sapiens (Human), UniProt Q9NRH2); assay: Kinase inhibition assay (KinaseProfiler, 33P-ATP); assay type: biochemical; settings: read-out: The percentage of the remaining active protein
[31] = target: Tie2(Y897S)(h) (Homo sapiens (Human), UniProt Q02763, Y897S); assay: Kinase inhibition assay (KinaseProfiler, 33P-ATP); assay type: biochemical; settings: read-out: The percentage of the remaining active protein
[32] = target: TLK1(h) (Homo sapiens (Human), UniProt Q9UKI8); assay: Kinase inhibition assay (KinaseProfiler, 33P-ATP); assay type: biochemical; settings: read-out: The percentage of the remaining active protein
[33] = target: PI3 Kinase (p110b/p85a)(h) (Homo sapiens (Human), UniProt P42338); assay: Kinase inhibition assay (KinaseProfiler, 33P-ATP); assay type: biochemical; settings: read-out: The percentage of the remaining active protein
[34] = target: PI3 Kinase (p110a/p65a)(m) (Mus musculus (Mouse), UniProt P42337); assay: Kinase inhibition assay (KinaseProfiler, 33P-ATP); assay type: biochemical; settings: read-out: The percentage of the remaining active protein
[35] = target: PIP5K1g(h) (Homo sapiens (Human), UniProt O60331); assay: Kinase inhibition assay (KinaseProfiler, 33P-ATP); assay type: biochemical; settings: read-out: The percentage of the remaining active protein

BrSK2(h), sequence (Q8IWQ3 whole entry): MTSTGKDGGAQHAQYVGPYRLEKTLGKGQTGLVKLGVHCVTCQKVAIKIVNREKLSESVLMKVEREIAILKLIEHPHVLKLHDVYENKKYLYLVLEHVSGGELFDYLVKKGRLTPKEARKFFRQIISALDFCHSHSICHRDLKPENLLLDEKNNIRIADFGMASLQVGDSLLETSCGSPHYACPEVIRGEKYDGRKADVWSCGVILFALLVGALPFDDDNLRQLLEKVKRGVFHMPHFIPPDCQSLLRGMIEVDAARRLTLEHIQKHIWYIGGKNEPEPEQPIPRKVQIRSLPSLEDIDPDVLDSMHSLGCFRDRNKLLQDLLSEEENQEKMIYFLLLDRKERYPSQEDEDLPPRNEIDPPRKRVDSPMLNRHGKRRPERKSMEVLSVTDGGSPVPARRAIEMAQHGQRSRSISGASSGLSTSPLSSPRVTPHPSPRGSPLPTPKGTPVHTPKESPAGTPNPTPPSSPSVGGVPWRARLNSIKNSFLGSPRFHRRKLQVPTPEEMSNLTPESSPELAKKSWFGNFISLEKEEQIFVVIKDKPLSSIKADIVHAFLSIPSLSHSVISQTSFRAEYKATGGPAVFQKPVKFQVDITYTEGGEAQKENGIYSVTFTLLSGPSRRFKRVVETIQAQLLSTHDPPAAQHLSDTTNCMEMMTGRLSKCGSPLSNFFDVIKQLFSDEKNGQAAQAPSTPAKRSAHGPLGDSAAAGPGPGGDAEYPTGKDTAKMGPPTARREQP
LOK(h), sequence (O94804 whole entry): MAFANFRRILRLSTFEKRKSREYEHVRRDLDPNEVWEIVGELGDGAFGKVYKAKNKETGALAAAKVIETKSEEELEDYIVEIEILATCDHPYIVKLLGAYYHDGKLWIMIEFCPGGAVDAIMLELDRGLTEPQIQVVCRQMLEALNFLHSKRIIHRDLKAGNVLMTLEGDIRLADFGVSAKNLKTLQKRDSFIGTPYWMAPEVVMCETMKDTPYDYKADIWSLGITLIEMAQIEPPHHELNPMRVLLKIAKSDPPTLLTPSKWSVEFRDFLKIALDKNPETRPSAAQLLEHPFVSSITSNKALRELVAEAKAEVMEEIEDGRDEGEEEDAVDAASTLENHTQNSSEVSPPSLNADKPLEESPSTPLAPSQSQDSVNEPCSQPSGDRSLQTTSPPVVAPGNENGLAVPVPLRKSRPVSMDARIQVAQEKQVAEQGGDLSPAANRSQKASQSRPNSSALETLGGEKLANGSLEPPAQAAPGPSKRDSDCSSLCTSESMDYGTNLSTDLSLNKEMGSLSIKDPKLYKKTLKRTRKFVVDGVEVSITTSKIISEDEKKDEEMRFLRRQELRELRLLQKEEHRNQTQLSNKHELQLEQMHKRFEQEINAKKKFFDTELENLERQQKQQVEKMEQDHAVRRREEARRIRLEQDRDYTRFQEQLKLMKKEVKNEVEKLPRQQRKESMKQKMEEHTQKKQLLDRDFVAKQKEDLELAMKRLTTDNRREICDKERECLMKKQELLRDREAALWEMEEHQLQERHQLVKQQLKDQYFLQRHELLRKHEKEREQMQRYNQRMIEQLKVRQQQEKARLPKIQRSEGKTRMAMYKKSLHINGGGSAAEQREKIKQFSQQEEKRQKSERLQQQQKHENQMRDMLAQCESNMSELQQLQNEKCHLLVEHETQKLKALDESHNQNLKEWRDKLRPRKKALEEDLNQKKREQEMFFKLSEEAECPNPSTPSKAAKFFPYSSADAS
PKG1β(h), sequence (Q13976 other isoform, or with tags, fused parts or gaps): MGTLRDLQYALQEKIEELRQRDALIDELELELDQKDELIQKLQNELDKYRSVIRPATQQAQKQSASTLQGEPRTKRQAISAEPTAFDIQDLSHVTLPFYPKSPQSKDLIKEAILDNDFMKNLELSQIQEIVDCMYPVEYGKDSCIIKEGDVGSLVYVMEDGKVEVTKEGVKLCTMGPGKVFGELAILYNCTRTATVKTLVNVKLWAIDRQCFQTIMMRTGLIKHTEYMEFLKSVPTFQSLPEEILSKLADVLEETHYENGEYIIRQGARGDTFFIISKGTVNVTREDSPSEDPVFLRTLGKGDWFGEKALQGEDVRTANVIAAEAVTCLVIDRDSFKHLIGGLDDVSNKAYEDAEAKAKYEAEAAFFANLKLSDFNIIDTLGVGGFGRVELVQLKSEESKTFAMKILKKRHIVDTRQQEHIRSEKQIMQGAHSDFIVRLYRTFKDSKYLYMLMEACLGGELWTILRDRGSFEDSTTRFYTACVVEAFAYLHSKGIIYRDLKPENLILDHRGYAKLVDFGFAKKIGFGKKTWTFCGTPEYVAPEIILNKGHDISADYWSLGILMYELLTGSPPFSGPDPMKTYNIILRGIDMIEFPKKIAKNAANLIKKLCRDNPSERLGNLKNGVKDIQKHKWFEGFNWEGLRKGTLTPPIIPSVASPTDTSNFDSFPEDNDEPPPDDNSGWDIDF
Rsk1(r), sequence (Q63531 whole entry): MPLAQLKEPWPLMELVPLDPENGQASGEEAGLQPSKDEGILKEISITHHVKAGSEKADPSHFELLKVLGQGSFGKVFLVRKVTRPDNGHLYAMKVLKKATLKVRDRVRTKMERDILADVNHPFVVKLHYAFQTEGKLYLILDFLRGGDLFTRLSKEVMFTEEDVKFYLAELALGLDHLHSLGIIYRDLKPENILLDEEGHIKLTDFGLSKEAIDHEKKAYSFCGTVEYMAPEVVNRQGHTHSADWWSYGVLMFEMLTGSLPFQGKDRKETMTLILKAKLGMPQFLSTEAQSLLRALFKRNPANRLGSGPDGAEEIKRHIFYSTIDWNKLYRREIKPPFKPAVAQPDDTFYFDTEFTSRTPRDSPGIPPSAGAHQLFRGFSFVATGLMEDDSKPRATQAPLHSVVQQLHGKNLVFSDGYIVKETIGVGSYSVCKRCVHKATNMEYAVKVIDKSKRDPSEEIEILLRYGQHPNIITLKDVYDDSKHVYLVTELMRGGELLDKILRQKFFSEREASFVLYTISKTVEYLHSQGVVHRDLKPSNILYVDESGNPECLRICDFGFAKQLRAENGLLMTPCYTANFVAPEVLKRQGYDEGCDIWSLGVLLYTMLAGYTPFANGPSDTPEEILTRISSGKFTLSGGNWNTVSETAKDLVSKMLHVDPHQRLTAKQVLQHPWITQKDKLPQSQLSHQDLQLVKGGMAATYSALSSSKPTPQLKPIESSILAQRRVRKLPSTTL
Tie2(Y897S)(h), sequence (Q02763 23-1124 Y897S): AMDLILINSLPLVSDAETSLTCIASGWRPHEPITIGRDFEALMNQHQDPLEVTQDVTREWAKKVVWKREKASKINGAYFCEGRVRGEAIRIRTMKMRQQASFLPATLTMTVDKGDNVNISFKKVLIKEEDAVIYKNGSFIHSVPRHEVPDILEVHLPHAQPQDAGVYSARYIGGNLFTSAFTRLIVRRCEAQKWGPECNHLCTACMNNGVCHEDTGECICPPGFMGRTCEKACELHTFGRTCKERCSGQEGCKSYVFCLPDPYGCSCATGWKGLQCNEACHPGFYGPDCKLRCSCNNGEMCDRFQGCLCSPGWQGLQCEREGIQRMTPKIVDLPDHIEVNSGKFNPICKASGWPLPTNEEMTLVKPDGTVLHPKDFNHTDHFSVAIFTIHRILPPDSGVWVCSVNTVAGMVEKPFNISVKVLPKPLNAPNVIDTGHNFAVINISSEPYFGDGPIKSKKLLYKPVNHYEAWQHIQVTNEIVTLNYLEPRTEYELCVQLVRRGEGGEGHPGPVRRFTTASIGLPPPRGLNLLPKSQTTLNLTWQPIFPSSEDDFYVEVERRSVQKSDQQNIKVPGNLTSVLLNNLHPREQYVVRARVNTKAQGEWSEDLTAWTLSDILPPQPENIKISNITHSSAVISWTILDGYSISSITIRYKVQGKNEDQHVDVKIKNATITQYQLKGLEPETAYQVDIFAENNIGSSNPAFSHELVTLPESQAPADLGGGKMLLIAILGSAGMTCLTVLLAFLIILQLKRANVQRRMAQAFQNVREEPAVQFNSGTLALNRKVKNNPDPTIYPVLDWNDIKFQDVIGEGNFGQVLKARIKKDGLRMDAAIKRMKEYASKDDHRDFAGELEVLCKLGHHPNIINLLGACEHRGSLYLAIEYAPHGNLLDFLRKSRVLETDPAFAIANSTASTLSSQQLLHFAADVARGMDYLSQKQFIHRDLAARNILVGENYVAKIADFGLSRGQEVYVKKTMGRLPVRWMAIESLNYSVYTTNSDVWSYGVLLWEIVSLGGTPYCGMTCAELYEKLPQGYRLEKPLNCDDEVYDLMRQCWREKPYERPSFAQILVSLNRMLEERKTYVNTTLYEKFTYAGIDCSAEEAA
SGK(h), sequence (O00141 whole entry): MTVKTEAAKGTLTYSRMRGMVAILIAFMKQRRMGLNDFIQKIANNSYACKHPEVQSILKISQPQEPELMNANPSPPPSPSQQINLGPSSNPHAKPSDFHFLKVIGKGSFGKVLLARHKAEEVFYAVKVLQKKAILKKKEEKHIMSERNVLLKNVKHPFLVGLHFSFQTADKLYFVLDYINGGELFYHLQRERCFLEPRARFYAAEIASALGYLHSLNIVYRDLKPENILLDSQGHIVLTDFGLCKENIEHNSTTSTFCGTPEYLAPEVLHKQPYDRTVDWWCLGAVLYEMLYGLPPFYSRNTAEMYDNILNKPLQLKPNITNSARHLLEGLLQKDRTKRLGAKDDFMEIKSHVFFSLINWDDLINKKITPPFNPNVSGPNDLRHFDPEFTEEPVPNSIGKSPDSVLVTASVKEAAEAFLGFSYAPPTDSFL
PhKγ2(h), sequence (P15735 whole entry): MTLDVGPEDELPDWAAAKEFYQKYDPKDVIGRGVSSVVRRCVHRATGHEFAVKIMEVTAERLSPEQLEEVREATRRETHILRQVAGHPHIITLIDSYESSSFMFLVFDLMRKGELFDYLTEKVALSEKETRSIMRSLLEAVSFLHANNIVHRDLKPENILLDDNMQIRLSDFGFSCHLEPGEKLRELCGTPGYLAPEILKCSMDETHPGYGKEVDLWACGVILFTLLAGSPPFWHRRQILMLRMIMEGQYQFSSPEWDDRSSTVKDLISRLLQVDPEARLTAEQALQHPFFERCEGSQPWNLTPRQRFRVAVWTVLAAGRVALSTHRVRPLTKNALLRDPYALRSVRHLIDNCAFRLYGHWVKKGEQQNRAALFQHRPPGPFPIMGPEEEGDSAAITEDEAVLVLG

Compound `Cc1ccc(NC(=O)c2cccc(C(F)(F)F)c2)cc1C#Cc1nn(C2CCN(C)CC2)c2ncnc(N)c12` [Compound 31] has a pIC50 [1] of 5.13 and a pIC50 [2] of 5.70.
Compound `CCn1nc(C#Cc2cc(C(=O)Nc3ccc(CN4CCN(C)CC4)c(C(F)(F)F)c3)ccc2C)c2c(N)ncnc21` [Compound 3] has a pIC50 [3] of 5.47.
`Cc1ccc(NC(=O)c2ccc(C)c(C(F)(F)F)c2)cc1C#Cc1nn([C@H]2CC[C@H](O)CC2)c2ncnc(N)c12` [Compound 93] showed a remaining activity at 10 µM [4] of 1%, a remaining activity at 10 µM [5] of 1% and a remaining activity at 10 µM [6] of 5%. It also gave a remaining activity at 10 µM [7] of -3%, a remaining activity at 10 µM [8] of 7% and a remaining activity at 10 µM [9] of 93%. It also gave a remaining activity at 10 µM [10] of 71%, a remaining activity at 10 µM [11] of 111% and a remaining activity at 10 µM [12] of 114%. For the same compound, the remaining activity at 10 µM [13] was 103%, the remaining activity at 10 µM [14] was 91% and the remaining activity at 10 µM [15] was 40%. For the same compound, the remaining activity at 10 µM [16] was -1%, the remaining activity at 10 µM [17] was 99% and the remaining activity at 10 µM [18] was 81%. It also gave a remaining activity at 10 µM [19] of 40%, a remaining activity at 10 µM [20] of 16% and a remaining activity at 10 µM [21] of 23%. For the same compound, the remaining activity at 10 µM [22] was 50%, the remaining activity at 10 µM [23] was 113% and the remaining activity at 10 µM [24] was 72%. For the same compound, the remaining activity at 10 µM [25] was 91%, the remaining activity at 10 µM [26] was 115% and the remaining activity at 10 µM [27] was 20%. The remaining activity at 10 µM [28] was 90%, the remaining activity at 10 µM [29] was 98% and the remaining activity at 10 µM [30] was 92%. The remaining activity at 10 µM [31] was 0%, the remaining activity at 10 µM [32] was 95% and the remaining activity at 10 µM [33] was 78%. For the same compound, the remaining activity at 10 µM [34] was 94% and the remaining activity at 10 µM [35] was 98%.
